Structures can show the parent of a compound that is named as a salt.
Legend:
adult housefly [1] = experiment: Efficacy against adult housefly, calves subcutaneous pellets (Example 20); assay type: in vivo, Musca domestica; settings: Musca domestica, sc, test day per line
Description: (§1) For the adult housefly test, 10 ml. of serum were employed to saturate a wick which was placed in a petri dish. Twenty-five chilled houseflies were placed in the dish which was then incubated for 24 hours at 27° C. and 50% relative humidity. After the end of the twenty-four hours, the efficacy of the candidate compound was determined as the percent mortality of housefly, adjusted as for blowfly by normal mortality in a control and reported according to the same scale as above.
The compound of Example 2, 2-hydroxy-2-(1,1,2,2-tetrafluoroethyl)-4-nitro-6-(trifluoromethyl)benzimidazoline sodium salt, was formulated neat into tablets, each containing about 85 mg. of compound.
These pellets were implanted in the right shoulder area of two calves, weighing 400 and 373 kilograms respectively, to supply a dose of about 5 mg./kg. (animals #651 and 1511, respectively). Another calf (animal #656) was maintained as a control and two additional calves weighing 336 and 350 kilograms (animals #654 and 655, respectively) received pellets of 2-(1,1,2,2-tetrafluoroethyl)-4-nitro-6-(trifluoromethyl)benzimidazole, to supply a dose of about 5 mg./kg. of compound.
(§2) As described in preceding examples, blood samples were withdrawn and analyzed for the concentration of the compound in the blood and percent efficacy against adult housefly and blowfly larvae.

blowfly larvae [2] = experiment: Efficacy against blowfly larvae, calves subcutaneous pellets (Example 20); assay type: in vivo; settings: Phormia regina, sc, test day per line
Description: (§3) Representative compounds of the present invention were evaluated against larvae of blowfly (Phormia regina) and against adult housefly (Musca domestica). In these evaluations, the candidate compound was administered to each of two male guinea pigs weighing from about 400 grams to about 1000 grams. Administration was via the intraperitoneal route, the compound having been formulated in sesame oil. At twenty-four hours following administration of the compound, blood was withdrawn from the guinea pigs. The serum portion was isolated and blowfly larvae and adult houseflies were fed on the serum. For the blowfly assay, 10 ml. of serum were placed in a test tube with a wick onto which 50 blowfly larvae were placed. The covered test tube was incubated at 27° C. for 24 hours, at which time efficacy of the candidate compound was determined as the percent mortality of the blowfly larvae, adjusted by normal mortality in a control, and reported according to the following rating scale:
The compound of Example 2, 2-hydroxy-2-(1,1,2,2-tetrafluoroethyl)-4-nitro-6-(trifluoromethyl)benzimidazoline sodium salt, was formulated neat into tablets, each containing about 85 mg. of compound. […]
as §2

[3] = CRC Handbook of Chemistry and Physics; cited from earlier work
calf = experiment: Tolerability in calves (Example 19); assay type: in vivo
Description: The compound of Example 3, 2-hydroxy-2,6-bis(trifluoromethyl)-4-nitrobenzimidazoline, sodium salt was evaluated as an ectoparasiticide when administered as pellets implanted in the ear of a calf numbered animal 106. The compound was formulated neat, in tablets about 1/8" thick. A total of 14 pellets was inserted into the left ear of a 215-kilogram calf, to supply a dose of about 5 mg./kg. […] Two other calves received intramuscular injections of aqueous solutions of 2-hydroxy-2,6-bis(trifluoromethyl)-4-nitrobenzimidazoline, sodium salt, to provide 5 or 7.5 mg./kg. of animal body weight. (animals 119 and 121 respectively). […] A control animal was also maintained throughout the test period.

blowfly larvae [4] = experiment: Blowfly larvae fed on serum of dosed guinea pigs; assay type: in vivo, Phormia regina; settings: guinea pig, serum at 24 hours
Description: as §3
(§4) Percent mortality was determined separately for each guinea pig.

guinea pigs = experiment: Mortality of guinea pigs after intraperitoneal dosing; assay type: in vivo, guinea pig; settings: for death of guinea pigs: two animals
Description: as §3, with “scale: […]” for “scale:”

adult housefly [5] = experiment: Adult houseflies fed on serum of dosed guinea pigs; assay type: in vivo, Musca domestica; settings: guinea pig, serum at 24 hours
Description: as §3, §4, §1

[6] = calf 654, pellets about 5 mg./kg.
[7] = calf 655, pellets about 5 mg./kg.

O=[N+]([O-])c1cc(C(F)(F)F)cc2nc(C(F)(F)C(F)F)[nH]c12 [2-(1,1,2,2-tetrafluoroethyl)-4-nitro-6-(trifluoromethyl)benzimidazole, reference compound]
Emax at 5 mg/kg (adult housefly [1]; [6]): 100% | Emax at 5 mg/kg (adult housefly [1]; [7]): 100% | Emax at 5 mg/kg (blowfly larvae [2]; [6]): 100% | Emax at 5 mg/kg (blowfly larvae [2]; [7]): 100%

N [Ammonia, ammonia]
Kb [3]: 1.79×10^-5

O=[N+]([O-])c1cc(C(F)(F)F)cc2c1NC(O)(C(F)(F)F)N2 (centres unmarked) [Example 3, 2-Hydroxy-2,6-Bis(Trifluoromethyl)-4-Nitrobenzimidazoline, Sodium Salt, Monohydrate]
swelling post-insertion (calf; calf 106, 14 ear pellets, about 5 mg./kg., 6 hours and 1 day): Some swelling was noted | death of calf (calf; calf 121, 7.5 mg./kg. intramuscular): found dead on day 2

CC(C)OC1(C(F)(F)C(F)F)Nc2cc(C(F)(F)F)cc([N+](=O)[O-])c2N1 (centres unmarked) [Example 4, 2-Isopropoxy-2-(1,1,2,2-Tetrafluoroethyl)-4-Nitro-6-(Trifluoromethyl)Benzimidazoline, Potassium Salt]
Efficacy Rating, Blowfly Larvae (blowfly larvae [4]; 5 mg./kg. i.p.): 5 (100% dead) | death of guinea pigs (guinea pigs; 10 mg./kg. i.p.): Both guinea pigs died | Efficacy Rating, Adult Housefly (adult housefly [5]; 5 mg./kg. i.p.): 5 (100% dead)

O=[N+]([O-])c1cc(C(F)(F)F)cc2c1NC(O)(C(F)(F)C(F)F)N2 (centres unmarked) [Example 6, 2-Hydroxy-2-(1,1,2,2-Tetrafluoroethyl)-4-Nitro-6-(Trifluoromethyl)Benzimidazoline, Calcium Salt]
Efficacy Rating, Blowfly Larvae (blowfly larvae [4]; 5 mg./kg. i.p.): 5 (100% dead) | Efficacy Rating, Blowfly Larvae (blowfly larvae [4]; 10 mg./kg. i.p., Calcium Salt): 5 (100% dead) | death of guinea pig (guinea pigs; 5 mg./kg. i.p., one of two animals): Guinea pig died | Efficacy Rating, Adult Housefly (adult housefly [5]; 5 mg./kg. i.p.): 5 (100% dead) | Efficacy Rating, Adult Housefly (adult housefly [5]; 10 mg./kg. i.p., Calcium Salt): 5 (100% dead)

O=[N+]([O-])c1cc(C(F)(F)F)cc2c1NC(O)(C(F)(F)C(F)F)N2 (centres unmarked) [Example 7, 2-Hydroxy-2-(1,1,2,2-Tetrafluoroethyl)-4-Nitro-6-(Trifluoromethyl)Benzimidazoline, Silver Salt]
death of guinea pigs (guinea pigs; 25 mg./kg. i.p.): guinea pigs died | death of guinea pigs (guinea pigs; 50 mg./kg. i.p.): guinea pigs died

O=[N+]([O-])c1cc(C(F)(F)F)cc2c1NC(O)(C(F)(F)C(F)F)N2 (centres unmarked) [Example 8, 2-Hydroxy-2-(1,1,2,2-Tetrafluoroethyl)-4-Nitro-6-(Trifluoromethyl)Benzimidazoline, Lithium Salt]
Efficacy Rating, Blowfly Larvae (blowfly larvae [4]; 5 mg./kg. i.p.): 5 (100% dead) | death of guinea pigs (guinea pigs; 20 mg./kg. i.p.): Both guinea pigs died | Efficacy Rating, Adult Housefly (adult housefly [5]; 5 mg./kg. i.p.): 5 (100% dead)
